Consider 34 compounds from PMC6216040, “Repurposing of an old drug: In vitro and in vivo efficacies of buparvaquone against Echinococcus multilocularis” (International Journal for Parasitology: Drugs and Drug …, 2018).

Read-outs that look alike come from different tables or passages of the source.

For this assay, the system named is E. multilocularis metacestodes. Nature of the assay: PGI-assay: drug-induced damage on in vitro cultured metacestodes (Pathogen Box screening cascade and EC50). The assay is classed as cell-based, Echinococcus multilocularis. The conditions noted are these: for PGI release, % of the Tx-100 control, 5d / PGI release, % of the Tx-100 control, 12d / cytotoxicity at 10 µM: 10 µM, singlets; for PGI release, % of Tx-100 control, average, 5d / PGI release, % of Tx-100 control, average, 12d: confirmatory screening at 10 µM in triplicates, values as % of Tx-100 control; for cytotoxicity at 10 µM: Echinococcus multilocularis.

The mark [1] stands for this setting: 120 h, 5 days of incubation, read-out: PGI release, % of the Tx-100 control, 5d.
Where [2] appears, read: 288 h, 12 days of incubation, read-out: PGI release, % of the Tx-100 control, 12d.

As for `Cc1cc(C)cc(COc2ccc3c(C)c(CCC(=O)O)c(=O)oc3c2C)c1` [MMV676476], under “5 days of incubation”, the “PGI release, % of the Tx-100 control, 5d” value was determined as 0.11%. Also, the “PGI release, % of the Tx-100 control, 12d” value (12 days of incubation) stood at 10.97%.
`CCc1c(C)nc(-n2nc(C)cc2NC(=O)c2ccccc2SC)[nH]c1=O` [MMV676477]: where the note is “5 days of incubation”, the “PGI release, % of the Tx-100 control, 5d” value is listed as -3.90% and the “PGI release, % of Tx-100 control, average, 5d” value (“PGI release, % … average, 5d” for short) is reported as -0.18%. Besides, where the note is “12 days of incubation”, the “PGI release, % of the Tx-100 control, 12d” value is 30.66% and the “PGI release, % of Tx-100 control, average, 12d” value (“PGI release, % … average, 12d” for short) is on record as 2.18%.
Regarding `O=C(C1CCN(c2nnc(-n3cccc3)s2)CC1)N1CCC(Cc2ccccc2)CC1` [MMV676478], the “PGI release, % of the Tx-100 control, 5d” value (5 days of incubation) was -4.04%. Further, for the setting “12 days of incubation”, the “PGI release, % of the Tx-100 control, 12d” value is recorded as 0.80%.
With `COC(=O)c1c(NC(=O)c2cc3ccccc3oc2=O)sc2c1CCN(Cc1ccccc1)C2` [MMV676480], the “PGI release, % of the Tx-100 control, 5d” value (5 days of incubation) is -0.80%. Further, where the note is “12 days of incubation”, the “PGI release, % of the Tx-100 control, 12d” value was 1.41%.
On to `O=C(Nc1n[nH]c(=S)s1)c1cc(Br)ccc1Cl` [MMV676492], for which the “PGI release, % of the Tx-100 control, 5d” value (5 days of incubation) worked out at 5.74%. Further, the “PGI release, % of the Tx-100 control, 12d” value (12 days of incubation) is 1.03%.
The matching figures for `O=C(Nc1nnc(-c2ccc(Cl)s2)o1)c1ccc(Cl)s1` [MMV676501]: 1.15% and 0.52%.
As to `Cc1ccc2oc(-c3cc(NC(=O)Cc4ccccc4)ccc3Cl)nc2c1` [MMV676509], the “PGI release, % of the Tx-100 control, 5d” value (5 days of incubation) is recorded as -0.17%. The “PGI release, % of the Tx-100 control, 12d” value (12 days of incubation) is 0.19%.
For `O=C(Nc1nc(-c2ccccn2)cs1)c1cncn1-c1ccccc1` [MMV676512], the “PGI release, % of the Tx-100 control, 5d” value (5 days of incubation) was determined as 0.19%. Further, where the note is “12 days of incubation”, the “PGI release, % of the Tx-100 control, 12d” value turned out to be 0.30%.
The matching figures for `O=C(c1cc2ccccc2o1)N1CCN(Cc2ccc3c(c2)OCO3)CC1` [MMV676520]: -0.72% and -0.39%.
Regarding `Nc1cccnc1Nc1ccc(Cl)cc1` [MMV676524], the “PGI release, % of the Tx-100 control, 5d” value (5 days of incubation) is recorded as 0.13%. Further, the “PGI release, % of the Tx-100 control, 12d” value (12 days of incubation) turned out to be 0.29%.
The corresponding values for `COc1ccc(-c2cc(NC(=O)c3ccc(F)cc3Cl)ccc2OC)cc1` [MMV676526] are 1.97% and -2.37%.
For `Cc1cccc(NC(=O)c2cc(S(=O)(=O)N(C)c3ccc(F)cc3)ccc2Cl)n1` [MMV676528], the “PGI release, % of the Tx-100 control, 5d” value (5 days of incubation) is given as -0.45%. For the same compound, for the setting “12 days of incubation”, the “PGI release, % of the Tx-100 control, 12d” value was determined as 0.71%.
Regarding `COCC(C)NC(=O)CSc1ncnc2sc(-c3ccccc3)cc12` (stereo not shown) [MMV676536], for the setting “5 days of incubation”, the “PGI release, % of the Tx-100 control, 5d” value is reported as 3.74% and the “PGI release, % … average, 5d” value is 0.53%. Moreover, for the setting “12 days of incubation”, the “PGI release, % of the Tx-100 control, 12d” value is 50.91% and the “PGI release, % … average, 12d” value was found to be 0.42%.
As for `O=C(NCCc1c[nH]c2ccccc12)c1cc2ccccc2oc1=O` [MMV676539], the “PGI release, % of the Tx-100 control, 5d” value (5 days of incubation) was found to be 0.63%. In addition, the “PGI release, % of the Tx-100 control, 12d” value (12 days of incubation) is recorded as 17.31%.
On to `COc1ccc(Nc2ccccc2NC(=O)c2ccc(=O)[nH]c2)cc1` [MMV676554], for which the “PGI release, % of the Tx-100 control, 5d” value (5 days of incubation) was found to be 0.17%. Under “12 days of incubation”, the “PGI release, % of the Tx-100 control, 12d” value came out at 3.85%.
The corresponding values for `Cc1nnc(NCc2cccc(Cl)c2)c2ccccc12` [MMV676555] are -3.14% and 1.45%.
`CC1=NN(c2nc3ccccc3s2)C(=O)C1Cc1cccc2ccccc12` (stereo not shown) [MMV676558]: for the setting “5 days of incubation”, the “PGI release, % of the Tx-100 control, 5d” value turned out to be 13.65% and the “PGI release, % … average, 5d” value was -0.26%. Also, where the note is “12 days of incubation”, the “PGI release, % of the Tx-100 control, 12d” value was 78.65% and the “PGI release, % … average, 12d” value is 0.35%.
`COc1ccc(-c2nc(-c3cccc(NC(=O)Cc4ccc(F)cc4)c3)no2)cc1OC` [MMV676571]: the “PGI release, % of the Tx-100 control, 5d” value (5 days of incubation) is -1.41%. The “PGI release, % of the Tx-100 control, 12d” value (12 days of incubation) was found to be 1.58%.
As to `O=C(NC1=NCCS1)c1sc2cc(F)ccc2c1Cl` [MMV676584], the “PGI release, % of the Tx-100 control, 5d” value (5 days of incubation) is -1.36%. Further, the “PGI release, % of the Tx-100 control, 12d” value (12 days of incubation) was 1.53%.
Consider `Nc1c2c(nc3sc4c(c13)CCCC4)CCCC2` [MMV676588], for which, under “5 days of incubation”, the “PGI release, % of the Tx-100 control, 5d” value was -0.72%. The “PGI release, % of the Tx-100 control, 12d” value (12 days of incubation) turned out to be 10.95%.
For the compound `O=C(CCC1CCCCC1)Nc1cccc(-c2nnc(-c3ccco3)o2)c1` [MMV676589], for the setting “5 days of incubation”, the “PGI release, % of the Tx-100 control, 5d” value is reported as -1.81%. Moreover, the “PGI release, % of the Tx-100 control, 12d” value (12 days of incubation) was determined as 2.20%.
The matching figures for `CCCn1nnc(NC(=O)COc2ccc(C3CCCCC3)cc2)n1` [MMV676597]: 0.61% and 0.33%.
For `CC(C)(C)n1nc(Cc2cccc3ccccc23)c2c(N)ncnc21` [MMV676599], the “PGI release, % of the Tx-100 control, 5d” value (5 days of incubation) is listed as -0.93%. Besides, the “PGI release, % of the Tx-100 control, 12d” value (12 days of incubation) is given as -0.99%.
Turning to `CO[C@@H](C(=O)N1Cc2n[nH]c(NC(=O)c3ccc(N4CCN(C)CC4)cc3)c2C1)c1ccccc1` [MMV676600, Danusertib, reference compound], the cytotoxicity at 10 µM under setting [1] is -0.38% and the cytotoxicity at 10 µM under setting [2] is -0.2%.
As for `CNC(=O)c1nn(C)c2c1C(C)(C)Cc1cnc(Nc3ccc(N4CCN(C)CC4)cc3)nc1-2` [MMV676602], under “5 days of incubation”, the “PGI release, % of the Tx-100 control, 5d” value is recorded as -1.52% and the “PGI release, % … average, 5d” value is on record as 0.52%. Also, where the note is “12 days of incubation”, the “PGI release, % of the Tx-100 control, 12d” value came to 120.02% and the “PGI release, % … average, 12d” value was determined as 12.12%.
Consider `C[C@H]1COC2(CCN(c3nc(=O)c4cc(C(F)(F)F)cc([N+](=O)[O-])c4s3)CC2)O1` [MMV676603], for which, where the note is “5 days of incubation”, the “PGI release, % of the Tx-100 control, 5d” value is -4.72%. In addition, under “12 days of incubation”, the “PGI release, % of the Tx-100 control, 12d” value came to 4.80%.
`Cc1ncc(-c2ccnc(Nc3ccc(S(C)(=O)=O)cc3)n2)n1C(C)C` [MMV676604]: the “PGI release, % of the Tx-100 control, 5d” value (5 days of incubation) is -0.0262%. Besides, under “12 days of incubation”, the “PGI release, % of the Tx-100 control, 12d” value stood at 0.36%.
Turning to `C[C@]1(O)C[C@@H](c2nc(-c3ccc4ccc(-c5ccccc5)nc4c3)c3c(N)nccn32)C1` [MMV676605, Linsitinib, reference compound], the cytotoxicity at 10 µM is -0.48% under setting [1] and 0.47% under setting [2].
Turning to `O=C(c1ccc(NCCO)cc1)C1C[C@H]1c1ccc(Cl)cc1` (stereo partly shown) [MMV676877], for the setting “5 days of incubation”, the “PGI release, % of the Tx-100 control, 5d” value came out at 0.56%. Moreover, the “PGI release, % of the Tx-100 control, 12d” value (12 days of incubation) was -0.18%.
Take `CCn1cnc2c(Nc3cc(F)cc(F)c3)nc(C#N)nc21` [MMV676881]: the “PGI release, % of the Tx-100 control, 5d” value (5 days of incubation) is on record as 0.06%. Also, the “PGI release, % of the Tx-100 control, 12d” value (12 days of incubation) is recorded as -0.62%.
Take `NC(=O)c1cc(-c2ccsc2)ccc1OCCOc1ccccc1` [MMV687138]: the “PGI release, % of the Tx-100 control, 5d” value (5 days of incubation) is -3.72%. The “PGI release, % of the Tx-100 control, 12d” value (12 days of incubation) is listed as 0.14%.
Take `CCCCS(=O)(=O)Nc1ccc2cnn(C)c2c1` [MMV687145]: the “PGI release, % of the Tx-100 control, 5d” value (5 days of incubation) is -0.86%. The “PGI release, % of the Tx-100 control, 12d” value (12 days of incubation) was -2.20%.
As for `Cc1cc(C)c2cc(C(=O)NC3CCCCCCC3)[nH]c2c1` [MMV687146], the “PGI release, % of the Tx-100 control, 5d” value (5 days of incubation) is reported as -4.26%. The “PGI release, % of the Tx-100 control, 12d” value (12 days of incubation) was -3.34%.
Consider `COc1ccc(Cn2cnc3c(-c4ccco4)nc(Cl)nc32)cc1` [MMV687170], for which, for the setting “5 days of incubation”, the “PGI release, % of the Tx-100 control, 5d” value came out at 0.26%. For the same compound, the “PGI release, % of the Tx-100 control, 12d” value (12 days of incubation) is on record as -3.06%.
